Test results from US20260365670A1, “EGFR INHIBITORS AND USES THEREOF” (DIZAL (JIANGSU) PHARMACEUTICAL CO., LTD., priority 2022, published 2026).
Like-named read-outs stand apart in the source and are kept apart here.

Experiments:
EGFR wild type = molecular target: T1, EGFR wild type (Homo sapiens, UniProt P00533); assay: Inhibition of EGFR wild type biochemical enzymatic activity (HTRF); conditions: EGFR wild type, 1 mM ATP, 1 h at room temperature, read-out: IC50 @WT
T1 construct: purchased Carna Bio
Protocol: Biological Example 1: Inhibition of EGFR WT and Mutant Biochemical Enzymatic Activity
The inhibition potency of compounds against these enzymes was assessed using Homogenous Time Resolved Fluorescence approach (HTRF, CisBio. Cat No. 62TKOPEJ).
Inhibitory effects of the compounds were determined by measuring the enzymatic activity of EGFR enzyme phosphorylates 1 μM TK Substrate-biotin in the presence of 1 mM adenosine-5′-triphosphate (ATP) and varying concentrations of the test compound. The enzyme reaction buffer contains 5 mM MgCl2, 1 mM MnC12, 0.01% CHAPS, 1 mM dithiothreitol (DTT), 0.5% dimethylsulfoxide (DMSO), and 1× supplemented enzymatic buffer. The WT and mutant EGFR enzymes (SignalChem) were added to plates containing inhibitors, followed by activation of the kinase reaction by addition of ATP and peptide substrates. After incubation for 1 h at room temperature, the reaction was stopped by the addition of the detection reagent mix containing EDTA. The fluorescence was measured at 615 nm and 665 nm, respectively with excitation wavelength at 320 nm. The calculated signal ratio of 665 nm/615 nm is proportional to the kinase activity. The concentration of compound producing 50% inhibition of the respective kinase (IC50) was calculated using four-parameter logistic fit with XL-FIT.

EGFR L858R = molecular target: T2, EGFR L858R (Homo sapiens, UniProt P00533, L858R); assay: Inhibition of EGFR L858R biochemical enzymatic activity (HTRF); conditions: 1 mM ATP, 1 h at room temperature, read-out: IC50 @L858R
T2 construct: purchased Carna Bio
Procedure, shortened: (§1)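 Phosphorylation of TK Substrate-biotin (1 μM) was measured at 1 mM ATP over a 1 h room-temperature incubation with serially varied compound. Detection was by HTRF ratio and analysis by 4PL fit to IC50.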

EGFR L858R/T790M = molecular target: T3, EGFR L858R/T790M (Homo sapiens, UniProt P00533, L858R/T790M); assay: Inhibition of EGFR L858R/T790M biochemical enzymatic activity (HTRF); conditions: EGFR L858R/T790M, 1 mM ATP, 1 h at room temperature, read-out: IC50 @L858R-T790M
T3 construct: purchased Carna Bio
Procedure, shortened: as §1

EGFR Exon19Del = molecular target: T4, EGFR Exon19Del (Homo sapiens, UniProt P00533, DEL746-750); assay: Inhibition of EGFR Exon19Del biochemical enzymatic activity (HTRF); conditions: EGFR Exon19Del, 1 mM ATP, 1 h at room temperature, read-out: IC50 @Del19
T4 construct: purchased Carna Bio
Procedure, shortened: as §1

EGFR Exon19Del/T790M = molecular target: T5, EGFR Exon19Del/T790M (Homo sapiens, UniProt P00533, DEL746-750/T790M); assay: Inhibition of EGFR Exon19Del/T790M biochemical enzymatic activity (HTRF); conditions: EGFR Exon19Del/T790M, 1 mM ATP, 1 h at room temperature, read-out: IC50 @Del19-T790M
T5 construct: purchased Carna Bio
Procedure, shortened: as §1

EGFR[T790M/C797S/L858R] = molecular target: T6, EGFR[T790M/C797S/L858R] (Homo sapiens, UniProt P00533, C797S/L858R/T790M); assay: Inhibition of EGFR[T790M/C797S/L858R] biochemical enzymatic activity (HTRF); conditions: EGFR[T790M/C797S/L858R], 1 mM ATP, 1 h at room temperature, read-out: IC50 @T790M- C797S - L858R
T6 construct: purchased Carna Bio
Procedure, shortened: as §1

[1] = molecular target: T7, EGFR[T790M/C797S/d746-750] (Homo sapiens, UniProt P00533, C797S/DEL746-750/T790M); assay: Inhibition of EGFR[T790M/C797S/d746-750] biochemical enzymatic activity (HTRF); conditions: EGFR[T790M/C797S/d746-750], 1 mM ATP, 1 h at room temperature, read-out: IC50 @T790M - C797S - Del19
T7 construct: purchased Carna Bio
Procedure, shortened: as §1

EGFR (d746-750 C797S) = molecular target: T8, EGFR (d746-750 C797S) (Homo sapiens, UniProt P00533, C797S/DEL746-750); assay: Inhibition of EGFR (d746-750 C797S) biochemical enzymatic activity (HTRF); conditions: EGFR (d746-750 C797S), 1 mM ATP, 1 h at room temperature, read-out: IC50 @Del19-C797S
T8 construct: purchased signalchem
Procedure, shortened: as §1

EGFR (C797S L858R) = molecular target: T9, EGFR (C797S L858R) (Homo sapiens, UniProt P00533, C797S/L858R); assay: Inhibition of EGFR (C797S L858R) biochemical enzymatic activity (HTRF); conditions: EGFR (C797S L858R), 1 mM ATP, 1 h at room temperature, read-out: IC50 @L858-C797S
T9 construct: purchased signalchem
Procedure, shortened: as §1

[2] = test system: Ba/F3 cells expressing EGFR mutations; assay: Cell proliferation assay, Ba/F3 cells expressing EGFR mutations (CellTiter-Glo, 72 hours); assay type: cell-based
Protocol: Biological Example 2: Cell Proliferation Assays
Ba/F3 cells expressing EGFR mutations were seeded in 384-well plates at 5000 cells/well in RPMI1640 medium containing […]. PC-9 at 500 cells/well was seeded into 384-well plates in RPMI1640 medium with 10% FBS. After overnight incubation, the assay plates were dosed with compounds at a series of concentrations. Alongside dosing the assay plates, the day 0 plate was processed using CellTiter-Glo® Luminescent Cell Viability Assay (Promega) to measure the number of viable cells (G0). The assay plates were further incubated for 72 hours and the number of viable cells (G3) was measured. The percentage of proliferation was calculated as: […]=100×(G3 value of sample well−G0 value)/(G3 value of DMSO control−G0 value). The concentration of compound producing 50% proliferation inhibition (GI50) was further calculated in best-fit curves using XLFit software. N/A=not available.

PC-9 = assay: Cell proliferation assay, PC-9 cells (CellTiter-Glo, 72 hours); assay type: cell-based; conditions: PC9 cells, read-out: GI50 PC9
Procedure, shortened: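 Luminescent viable-cell counts were taken on a day 0 plate at dosing and again at endpoint. Proliferation was calculated as (sample − G0)/(DMSO − G0). Seeding was 5000 Ba/F3 or 500 PC-9 cells per well in RPMI1640, followed by overnight attachment and serial compound dilutions. The GI50 was fitted.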

[3] = BaF3 cells, EGFR DEL19 - C797S, read-out: GI50 DEL19 - C797S/BaF3
[4] = BaF3 cells, EGFR DEL19 - T790-C797S, read-out: GI50 DEL19 - T790-C797S/BaF3
[5] = BaF3 cells, EGFR L858R - C797S, read-out: GI50 L858R - C797S/BaF3
[6] = BaF3 cells, EGFR L858R - T790-C797S, read-out: GI50 L858R - T790-C797S/BaF3
[7] = BaF3 cells, EGFR L858R - T790M, read-out: GI50 L858R - T790M/BaF3
[8] = BaF3 cells, EGFR L858R, read-out: GI50 L858R/BaF3
[9] = EGFR DEL19 - T790M, read-out: GI50 DEL19 - T790M

T1 sequence (P00533 25-1210): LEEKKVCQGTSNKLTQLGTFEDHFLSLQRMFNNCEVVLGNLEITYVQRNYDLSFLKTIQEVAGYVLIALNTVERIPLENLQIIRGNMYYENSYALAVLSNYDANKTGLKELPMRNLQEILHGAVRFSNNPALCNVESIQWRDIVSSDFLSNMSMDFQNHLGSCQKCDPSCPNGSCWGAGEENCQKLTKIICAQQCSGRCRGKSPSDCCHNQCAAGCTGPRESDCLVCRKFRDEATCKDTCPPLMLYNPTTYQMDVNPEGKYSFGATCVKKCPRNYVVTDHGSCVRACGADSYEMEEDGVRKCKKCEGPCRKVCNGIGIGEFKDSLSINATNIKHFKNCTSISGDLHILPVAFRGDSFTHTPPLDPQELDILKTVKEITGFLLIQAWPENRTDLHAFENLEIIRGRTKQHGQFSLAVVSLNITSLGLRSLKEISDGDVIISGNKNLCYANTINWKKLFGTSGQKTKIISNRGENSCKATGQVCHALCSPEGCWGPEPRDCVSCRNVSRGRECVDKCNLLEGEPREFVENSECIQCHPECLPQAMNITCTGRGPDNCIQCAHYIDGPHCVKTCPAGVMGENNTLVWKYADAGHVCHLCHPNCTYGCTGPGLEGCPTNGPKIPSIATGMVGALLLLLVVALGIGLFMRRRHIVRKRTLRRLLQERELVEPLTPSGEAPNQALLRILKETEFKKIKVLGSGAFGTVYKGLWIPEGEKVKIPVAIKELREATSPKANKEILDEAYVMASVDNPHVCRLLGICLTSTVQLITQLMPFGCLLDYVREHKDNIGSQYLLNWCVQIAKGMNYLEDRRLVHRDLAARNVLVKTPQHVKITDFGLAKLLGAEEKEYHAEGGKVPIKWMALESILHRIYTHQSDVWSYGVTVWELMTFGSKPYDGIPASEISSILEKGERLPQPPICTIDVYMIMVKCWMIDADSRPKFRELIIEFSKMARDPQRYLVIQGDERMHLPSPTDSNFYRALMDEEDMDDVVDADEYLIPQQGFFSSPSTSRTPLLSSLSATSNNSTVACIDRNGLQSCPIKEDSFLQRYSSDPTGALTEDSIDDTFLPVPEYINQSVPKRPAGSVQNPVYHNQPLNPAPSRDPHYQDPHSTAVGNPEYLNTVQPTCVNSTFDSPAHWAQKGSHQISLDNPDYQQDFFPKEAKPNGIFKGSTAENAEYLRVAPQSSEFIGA
T2 sequence (P00533 25-1210 L858R): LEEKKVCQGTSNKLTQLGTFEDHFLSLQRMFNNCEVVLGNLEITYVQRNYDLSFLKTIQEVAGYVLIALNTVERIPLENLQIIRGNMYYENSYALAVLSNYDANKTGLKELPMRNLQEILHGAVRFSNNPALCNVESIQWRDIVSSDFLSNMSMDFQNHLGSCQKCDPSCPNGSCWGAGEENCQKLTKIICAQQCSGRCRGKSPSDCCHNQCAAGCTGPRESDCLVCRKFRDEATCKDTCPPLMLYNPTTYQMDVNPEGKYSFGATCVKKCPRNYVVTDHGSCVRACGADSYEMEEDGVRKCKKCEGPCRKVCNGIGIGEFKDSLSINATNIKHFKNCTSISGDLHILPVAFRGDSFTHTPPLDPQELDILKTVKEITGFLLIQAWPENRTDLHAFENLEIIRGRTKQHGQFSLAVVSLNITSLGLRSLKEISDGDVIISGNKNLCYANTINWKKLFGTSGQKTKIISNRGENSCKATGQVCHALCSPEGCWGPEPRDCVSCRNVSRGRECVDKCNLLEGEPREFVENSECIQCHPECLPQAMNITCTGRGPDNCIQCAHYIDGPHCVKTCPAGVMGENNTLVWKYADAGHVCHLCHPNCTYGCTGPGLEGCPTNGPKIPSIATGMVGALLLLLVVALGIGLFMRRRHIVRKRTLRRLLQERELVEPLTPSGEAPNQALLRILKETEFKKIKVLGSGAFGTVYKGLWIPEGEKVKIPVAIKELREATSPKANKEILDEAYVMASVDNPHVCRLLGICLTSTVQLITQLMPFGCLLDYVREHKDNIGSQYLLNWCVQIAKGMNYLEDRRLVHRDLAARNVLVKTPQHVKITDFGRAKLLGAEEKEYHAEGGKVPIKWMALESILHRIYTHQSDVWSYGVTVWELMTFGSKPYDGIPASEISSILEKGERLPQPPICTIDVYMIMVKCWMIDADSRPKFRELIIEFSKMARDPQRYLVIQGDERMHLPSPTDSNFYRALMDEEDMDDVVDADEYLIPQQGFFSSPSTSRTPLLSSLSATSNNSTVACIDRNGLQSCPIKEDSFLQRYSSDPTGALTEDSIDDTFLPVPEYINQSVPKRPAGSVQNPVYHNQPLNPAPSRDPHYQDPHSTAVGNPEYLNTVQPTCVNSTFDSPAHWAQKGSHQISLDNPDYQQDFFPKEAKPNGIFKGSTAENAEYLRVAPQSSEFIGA
T6 sequence (P00533 25-1210 T790M/C797S/L858R): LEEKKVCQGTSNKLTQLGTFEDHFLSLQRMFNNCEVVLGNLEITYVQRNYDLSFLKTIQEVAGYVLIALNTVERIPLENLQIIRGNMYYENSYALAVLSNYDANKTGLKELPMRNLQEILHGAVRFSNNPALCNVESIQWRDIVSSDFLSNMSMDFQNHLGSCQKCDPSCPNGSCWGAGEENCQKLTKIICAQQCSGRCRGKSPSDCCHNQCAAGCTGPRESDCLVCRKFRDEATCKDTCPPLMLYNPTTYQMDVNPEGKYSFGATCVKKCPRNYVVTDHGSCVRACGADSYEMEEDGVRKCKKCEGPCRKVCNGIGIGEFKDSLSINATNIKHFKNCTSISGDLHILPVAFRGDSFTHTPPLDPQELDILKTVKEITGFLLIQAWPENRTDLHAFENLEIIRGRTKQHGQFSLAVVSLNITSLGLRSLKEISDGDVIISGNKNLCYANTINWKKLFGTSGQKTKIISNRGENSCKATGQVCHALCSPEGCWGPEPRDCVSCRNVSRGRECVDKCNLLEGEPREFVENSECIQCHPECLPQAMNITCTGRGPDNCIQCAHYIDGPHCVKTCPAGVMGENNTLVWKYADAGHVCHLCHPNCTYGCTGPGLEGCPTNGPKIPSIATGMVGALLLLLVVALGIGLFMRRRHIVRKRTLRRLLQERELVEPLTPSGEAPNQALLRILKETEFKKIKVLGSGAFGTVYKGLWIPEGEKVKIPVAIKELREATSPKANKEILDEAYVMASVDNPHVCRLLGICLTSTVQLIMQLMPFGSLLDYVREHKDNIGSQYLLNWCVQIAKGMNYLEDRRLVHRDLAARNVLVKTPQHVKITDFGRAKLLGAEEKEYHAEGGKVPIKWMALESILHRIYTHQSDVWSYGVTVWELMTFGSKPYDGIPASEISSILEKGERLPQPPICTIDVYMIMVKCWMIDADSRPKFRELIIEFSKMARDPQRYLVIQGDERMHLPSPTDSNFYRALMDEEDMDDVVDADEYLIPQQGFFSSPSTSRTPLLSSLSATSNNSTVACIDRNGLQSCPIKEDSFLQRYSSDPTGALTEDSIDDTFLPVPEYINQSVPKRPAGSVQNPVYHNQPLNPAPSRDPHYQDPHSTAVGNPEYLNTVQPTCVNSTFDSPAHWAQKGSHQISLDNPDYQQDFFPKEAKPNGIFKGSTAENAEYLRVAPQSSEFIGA
T9 sequence (P00533 25-1210 C797S/L858R): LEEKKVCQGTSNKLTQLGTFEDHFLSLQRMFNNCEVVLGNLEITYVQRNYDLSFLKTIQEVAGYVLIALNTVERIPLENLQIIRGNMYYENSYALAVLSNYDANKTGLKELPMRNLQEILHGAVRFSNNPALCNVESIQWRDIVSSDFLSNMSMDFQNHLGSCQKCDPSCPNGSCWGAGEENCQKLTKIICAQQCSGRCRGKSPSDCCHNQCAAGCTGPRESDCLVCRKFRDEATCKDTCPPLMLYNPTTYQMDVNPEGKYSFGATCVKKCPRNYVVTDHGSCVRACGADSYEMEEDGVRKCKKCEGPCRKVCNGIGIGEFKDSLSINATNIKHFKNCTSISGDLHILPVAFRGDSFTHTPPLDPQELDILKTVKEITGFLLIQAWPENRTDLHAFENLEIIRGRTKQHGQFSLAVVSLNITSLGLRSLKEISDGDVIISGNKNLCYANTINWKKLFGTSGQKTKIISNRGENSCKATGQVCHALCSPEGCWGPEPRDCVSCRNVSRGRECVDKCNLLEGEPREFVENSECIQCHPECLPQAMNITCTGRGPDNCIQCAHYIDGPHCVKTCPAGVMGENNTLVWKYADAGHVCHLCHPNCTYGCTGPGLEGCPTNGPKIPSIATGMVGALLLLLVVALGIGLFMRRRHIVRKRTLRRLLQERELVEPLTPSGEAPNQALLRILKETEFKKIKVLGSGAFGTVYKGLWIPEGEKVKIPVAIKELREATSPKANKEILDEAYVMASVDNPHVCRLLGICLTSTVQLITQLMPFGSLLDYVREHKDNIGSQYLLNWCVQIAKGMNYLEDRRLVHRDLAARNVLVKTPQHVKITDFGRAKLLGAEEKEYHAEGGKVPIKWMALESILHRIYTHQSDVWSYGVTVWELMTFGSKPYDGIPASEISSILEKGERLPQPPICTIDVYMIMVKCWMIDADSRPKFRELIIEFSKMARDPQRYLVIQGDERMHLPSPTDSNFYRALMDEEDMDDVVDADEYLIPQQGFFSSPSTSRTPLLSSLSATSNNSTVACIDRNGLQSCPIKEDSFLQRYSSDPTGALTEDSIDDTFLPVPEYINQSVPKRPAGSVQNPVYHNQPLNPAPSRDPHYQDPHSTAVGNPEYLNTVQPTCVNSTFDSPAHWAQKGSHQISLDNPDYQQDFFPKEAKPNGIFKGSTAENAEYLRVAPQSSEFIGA

IC50 (EGFR wild type) [nM]	IC50 (EGFR L858R) [nM]	IC50 (EGFR L858R/T790M) [nM]	IC50 (EGFR Exon19Del) [nM]	IC50 (EGFR Exon19Del/T790M) [nM]	IC50 (EGFR[T790M/C797S/L858R]) [nM]	IC50 [1] [nM]	IC50 (EGFR (d746-750 C797S)) [nM]	IC50 (EGFR (C797S L858R)) [nM]	GI50 [2, 3] [nM]	GI50 [2, 4] [nM]	GI50 [2, 5] [nM]	GI50 [2, 6] [nM]	GI50 [2, 7] [nM]	GI50 [2, 8] [nM]	GI50 [2, 9] [nM]	GI50 (PC-9) [nM]	Compound	other results
> 5000	> 5000	> 5000	> 5000	3620	> 5000	1290	> 5000	> 5000	239	363	10000	48	10000	2850	10000	2800	Cc1cc2cc(n1)-c1cnn(C)c1OCCN1CC3CCC(C3)(C1)n1c(nc3ccc(N(C)CCCN(C)C)cc31)NC2=O (single isomer, unassigned) [Example B45A]	
> 5000	> 5000	> 5000	> 5000	481	> 5000	289	> 5000	> 5000	325	606	750	57	353	931	550	1480	Cc1cc2cc(n1)-c1cnn(C)c1OCCN1CC3CCC(C3)(C1)n1c(nc3ccc(N4CCC(N5CCN(C)CC5)C4)cc31)NC2=O (single isomer, unassigned) [Example B49A]	
734	51	9.9	13	10	5.7	6.3	7	15	2	2	3	2	2	5	2	9	Cc1cc2cc(n1)-c1cnn(C)c1OCCN1CC3CCC(C3)(C1)n1c(nc3ccc(N4CC[C@@H](N(C)C)C4)cc31)NC2=O (single isomer, unassigned) [Example B42B]	
> 5000	> 5000	909	864	42	529	17	322	4430	173	130	253	123	292	1600	189	469	Cc1cc2cc(n1)-c1cnn(C)c1OCCN1CCOCC(C1)n1c(nc3ccccc31)NC2=O (stereo not drawn) [Example B7B, 15,21-dimethyl-23,29-dioxa-2,9,11,16,20,21,26-heptaazahexacyclo[24.4.1.1^{13,17}.0^{2,10}.0^{3,8}.0^{18,22}]dotriaconta-3,5,7,9,13(32),14,16,18(22),19-nonaen-12-one]	
> 5000	> 5000	> 5000	> 5000	1160	> 5000	200	> 5000	> 5000	193	200	442	68	305	998	271	1320	Cc1cc2cc(n1)-c1cnn(C)c1OCCN1CC3CCC(C3)(C1)n1c(nc3ccc(N4CC5CN(C)CC5C4)cc31)NC2=O (single isomer, unassigned) [Example B43A]	
> 5000	> 5000	> 5000	> 5000	685	> 5000	122	> 5000	> 5000									Cc1cc2cc(n1)-c1cnn(C)c1OCCCCCn1c(nc3ccn(C)c(=O)c31)NC2=O [Example B20, 5,16,26-Trimethyl-7-oxa-4,5,13,16,20,22,27-heptaazapentacyclo[22.3.1.0^{2,6}.0^{13,21}.0^{14,19}]octacosa-1(27),2(6),3,14(19),17,20,24(28),25-octaene-15,23-dione]	GI50 ([2]; Mus musculus, BaF3, 72 h, BaF3 cells, EGFR DEL19 - C797S, read-out: GI50 DEL19 - C797S/BaF3): 487 nM; GI50 ([2]; Mus musculus, BaF3, 72 h, BaF3 cells, EGFR DEL19 - T790-C797S, read-out: GI50 DEL19 - T790-C797S/BaF3): 258 nM; GI50 ([2]; Mus musculus, BaF3, 72 h, BaF3 cells, EGFR L858R - C797S, read-out: GI50 L858R - C797S/BaF3): 10000 nM; GI50 ([2]; Mus musculus, BaF3, 72 h, BaF3 cells, EGFR L858R - T790-C797S, read-out: GI50 L858R - T790-C797S/BaF3): 159 nM; GI50 ([2]; Mus musculus, BaF3, 72 h, BaF3 cells, EGFR L858R - T790M, read-out: GI50 L858R - T790M/BaF3): 1020 nM; GI50 ([2]; Mus musculus, BaF3, 72 h, BaF3 cells, EGFR L858R, read-out: GI50 L858R/BaF3): 2040 nM; GI50 ([2]; Mus musculus, BaF3, 72 h, EGFR DEL19 - T790M, read-out: GI50 DEL19 - T790M): 331 nM; GI50 (PC-9; Homo sapiens, PC-9, 72 h): 1280 nM
